This note sets out measurements from ChEMBL document CHEMBL1145989, “Development of a water-soluble matrix metalloproteinase inhibitor as an intra-arterial infusion drug for prevention of restenosis after angioplasty” (J Med Chem, 2003).

In assay [1] the target is Matrix metalloproteinase-9 (Homo sapiens, UniProt P14780). In words: Inhibition of human Matrix metalloprotease-9 (MMP-9).
Assay [2] concerns the target 72 kDa type IV collagenase (Homo sapiens, UniProt P08253). In words: Inhibition of human Matrix metalloprotease-2 (MMP-2).
The target of assay [3] is Macrophage metalloelastase (Homo sapiens, UniProt P39900). In words: Inhibition of human Matrix metalloprotease-12 (MMP-12).
Macrophage metalloelastase, sequence (P39900 whole entry): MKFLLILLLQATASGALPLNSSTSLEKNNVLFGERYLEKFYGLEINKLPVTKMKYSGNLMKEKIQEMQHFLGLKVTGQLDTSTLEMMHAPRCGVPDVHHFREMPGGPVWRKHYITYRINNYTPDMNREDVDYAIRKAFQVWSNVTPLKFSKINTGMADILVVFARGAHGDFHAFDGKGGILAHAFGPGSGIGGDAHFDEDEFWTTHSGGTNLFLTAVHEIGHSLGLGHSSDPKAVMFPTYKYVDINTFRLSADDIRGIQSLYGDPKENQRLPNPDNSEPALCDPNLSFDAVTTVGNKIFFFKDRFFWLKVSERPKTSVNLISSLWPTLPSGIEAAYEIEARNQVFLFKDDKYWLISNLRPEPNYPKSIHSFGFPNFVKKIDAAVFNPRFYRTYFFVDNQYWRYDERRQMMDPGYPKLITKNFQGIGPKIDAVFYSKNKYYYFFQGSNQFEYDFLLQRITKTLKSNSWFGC

72 kDa type IV collagenase, sequence (P08253 whole entry): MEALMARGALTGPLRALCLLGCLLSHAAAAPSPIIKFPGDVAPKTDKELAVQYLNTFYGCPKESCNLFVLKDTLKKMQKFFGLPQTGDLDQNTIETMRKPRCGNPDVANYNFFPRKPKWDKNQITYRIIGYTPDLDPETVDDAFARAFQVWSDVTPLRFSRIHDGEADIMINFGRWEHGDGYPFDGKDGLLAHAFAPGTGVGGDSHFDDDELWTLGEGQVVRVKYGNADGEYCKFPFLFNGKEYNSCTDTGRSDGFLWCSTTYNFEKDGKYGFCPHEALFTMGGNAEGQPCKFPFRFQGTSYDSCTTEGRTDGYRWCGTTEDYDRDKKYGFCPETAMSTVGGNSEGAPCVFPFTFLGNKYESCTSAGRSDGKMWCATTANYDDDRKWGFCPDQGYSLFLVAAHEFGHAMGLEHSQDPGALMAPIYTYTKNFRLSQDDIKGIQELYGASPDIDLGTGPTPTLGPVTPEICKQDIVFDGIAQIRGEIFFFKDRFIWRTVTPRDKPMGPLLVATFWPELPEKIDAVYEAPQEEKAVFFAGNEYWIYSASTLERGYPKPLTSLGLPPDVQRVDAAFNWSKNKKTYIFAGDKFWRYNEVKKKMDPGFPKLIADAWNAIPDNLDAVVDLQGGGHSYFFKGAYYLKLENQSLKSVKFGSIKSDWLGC
Matrix metalloproteinase-9, sequence (P14780 whole entry): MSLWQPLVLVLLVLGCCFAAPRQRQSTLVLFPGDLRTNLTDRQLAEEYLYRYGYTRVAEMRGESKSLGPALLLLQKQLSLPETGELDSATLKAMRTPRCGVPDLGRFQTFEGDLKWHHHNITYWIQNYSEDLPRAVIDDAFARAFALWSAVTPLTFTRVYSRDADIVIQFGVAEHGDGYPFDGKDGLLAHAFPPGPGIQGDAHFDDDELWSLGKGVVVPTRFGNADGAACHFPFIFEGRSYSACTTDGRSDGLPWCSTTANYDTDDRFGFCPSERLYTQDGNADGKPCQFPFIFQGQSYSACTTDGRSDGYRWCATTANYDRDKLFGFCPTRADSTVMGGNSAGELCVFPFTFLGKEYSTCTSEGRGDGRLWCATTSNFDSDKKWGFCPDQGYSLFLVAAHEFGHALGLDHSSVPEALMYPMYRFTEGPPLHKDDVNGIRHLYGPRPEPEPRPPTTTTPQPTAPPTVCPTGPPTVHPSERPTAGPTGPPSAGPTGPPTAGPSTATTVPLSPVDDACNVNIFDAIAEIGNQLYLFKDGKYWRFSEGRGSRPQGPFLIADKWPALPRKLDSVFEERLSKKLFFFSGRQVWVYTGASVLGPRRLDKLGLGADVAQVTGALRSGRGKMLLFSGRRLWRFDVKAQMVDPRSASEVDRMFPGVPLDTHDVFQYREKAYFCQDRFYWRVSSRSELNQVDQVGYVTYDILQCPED

`C[C@@H](C[C@@H](CO)NC(=O)c1ccc(Oc2ccccc2)cc1)C(=O)NO`: the IC50 (in general, the concentration that gives 50% inhibition) in assay [1] came out at 0.8 nM; in assay [2], 0.65 nM; in assay [3], 3.5 nM.
Regarding `C[C@@H](C[C@@H](COC(=O)CCC(=O)O)NC(=O)c1ccc(Oc2ccccc2)cc1)C(=O)NO`, the figures for the IC50 in assay [1], in assay [2] and in assay [3] were 2.8 nM, 1.1 nM and 2.6 nM, respectively.
